{
  "source": "paper PMC7262777",
  "about": "(Journal of medicinal chemistry, 2020)",
  "key": {"chemokine CXCR7 receptor": {"target": "chemokine CXCR7 receptor (Homo sapiens, UniProt P25106)", "sequence (P25106 whole entry)": "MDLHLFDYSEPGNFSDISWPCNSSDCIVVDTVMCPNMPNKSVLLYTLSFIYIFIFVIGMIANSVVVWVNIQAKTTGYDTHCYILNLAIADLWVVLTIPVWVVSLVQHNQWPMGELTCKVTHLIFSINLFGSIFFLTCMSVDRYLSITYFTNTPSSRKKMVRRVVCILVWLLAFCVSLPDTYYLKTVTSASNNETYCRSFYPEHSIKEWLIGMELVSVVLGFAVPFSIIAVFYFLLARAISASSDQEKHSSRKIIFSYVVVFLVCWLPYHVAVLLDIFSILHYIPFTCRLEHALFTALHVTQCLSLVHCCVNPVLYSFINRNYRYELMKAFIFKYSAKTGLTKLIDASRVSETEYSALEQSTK", "assay": "DiscoverX gpcrMAX panel, agonist mode, CXCR7", "details": "10 μM"}, "D4R": {"target": "T1, D4R (Homo sapiens, UniProt P21917)", "T1 sequence (P21917 1-419)": "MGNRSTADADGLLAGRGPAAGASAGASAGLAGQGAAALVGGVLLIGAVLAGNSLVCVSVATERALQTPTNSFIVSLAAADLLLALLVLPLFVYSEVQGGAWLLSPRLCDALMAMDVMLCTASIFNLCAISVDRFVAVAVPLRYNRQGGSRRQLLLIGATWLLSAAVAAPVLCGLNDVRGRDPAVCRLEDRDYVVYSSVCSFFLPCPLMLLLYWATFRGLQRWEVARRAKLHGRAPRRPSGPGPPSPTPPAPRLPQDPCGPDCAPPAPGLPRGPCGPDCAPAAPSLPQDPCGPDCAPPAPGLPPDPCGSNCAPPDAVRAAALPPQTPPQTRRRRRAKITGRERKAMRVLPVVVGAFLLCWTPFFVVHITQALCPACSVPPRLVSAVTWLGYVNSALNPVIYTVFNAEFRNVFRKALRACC", "assay": "DiscoverX gpcrMAX panel, agonist mode, D4R", "details": "10 μM"}, "D3R [1]": {"target": "T2, D3R (Homo sapiens, UniProt P35462)", "T2 sequence (P35462 whole entry)": "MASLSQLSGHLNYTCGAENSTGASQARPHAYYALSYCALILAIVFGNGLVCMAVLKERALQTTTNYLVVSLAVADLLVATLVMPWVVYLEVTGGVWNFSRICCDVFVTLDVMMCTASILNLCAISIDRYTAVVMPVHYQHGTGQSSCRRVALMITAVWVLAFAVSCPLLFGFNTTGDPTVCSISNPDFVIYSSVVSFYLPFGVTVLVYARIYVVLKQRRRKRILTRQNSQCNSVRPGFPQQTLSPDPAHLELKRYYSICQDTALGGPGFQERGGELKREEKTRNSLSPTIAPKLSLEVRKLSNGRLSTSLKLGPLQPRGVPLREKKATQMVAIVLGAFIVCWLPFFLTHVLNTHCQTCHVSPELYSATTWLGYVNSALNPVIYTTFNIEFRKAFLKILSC", "details": "10 μM"}, "human D2RL": {"target": "human D2RL (Homo sapiens, UniProt P14416)", "sequence (P14416 whole entry)": "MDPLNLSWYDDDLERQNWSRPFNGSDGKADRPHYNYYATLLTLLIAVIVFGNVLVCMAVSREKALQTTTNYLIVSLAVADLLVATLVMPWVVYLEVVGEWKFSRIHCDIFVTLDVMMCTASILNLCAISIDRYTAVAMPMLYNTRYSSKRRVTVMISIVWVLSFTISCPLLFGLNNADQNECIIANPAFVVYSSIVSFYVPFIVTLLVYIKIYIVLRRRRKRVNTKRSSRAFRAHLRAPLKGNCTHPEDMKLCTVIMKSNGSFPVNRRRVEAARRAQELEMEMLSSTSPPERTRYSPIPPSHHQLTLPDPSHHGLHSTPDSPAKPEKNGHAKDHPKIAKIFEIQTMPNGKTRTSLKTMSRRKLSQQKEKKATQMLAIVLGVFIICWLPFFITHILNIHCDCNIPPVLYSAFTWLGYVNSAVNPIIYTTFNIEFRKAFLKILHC", "assay": "[3H]-methylspiperone competition binding, D2R membranes"}, "D2R": {"target": "D2R (Homo sapiens, UniProt P14416)", "sequence (P14416 whole entry)": "as above", "assay": "β-arrestin recruitment DiscoverX PathHunter assay, agonist mode, D2R", "type": "cell-based"}, "[2]": {"test_system": "D3R-expressing dopaminergic neurons derived from human iPSCs", "assay": "MTT cell viability, protection from 6-OHDA-induced cell death"}, "human 5-HT2B": {"target": "human 5-HT2B (Homo sapiens, UniProt P41595)", "sequence (P41595 whole entry)": "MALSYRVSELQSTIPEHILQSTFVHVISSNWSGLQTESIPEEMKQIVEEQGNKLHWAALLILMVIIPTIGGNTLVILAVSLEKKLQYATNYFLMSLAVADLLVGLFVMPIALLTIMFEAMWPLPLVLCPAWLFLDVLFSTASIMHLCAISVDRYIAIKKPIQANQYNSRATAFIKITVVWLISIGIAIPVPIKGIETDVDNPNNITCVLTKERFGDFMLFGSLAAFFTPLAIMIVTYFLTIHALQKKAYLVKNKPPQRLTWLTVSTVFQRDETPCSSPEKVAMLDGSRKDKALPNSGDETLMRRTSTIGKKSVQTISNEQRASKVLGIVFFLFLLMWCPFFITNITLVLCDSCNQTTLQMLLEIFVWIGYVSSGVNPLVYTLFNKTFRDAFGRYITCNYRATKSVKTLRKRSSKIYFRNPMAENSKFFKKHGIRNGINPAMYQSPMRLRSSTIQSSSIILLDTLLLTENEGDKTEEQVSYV", "assay": "Inositol 1-phosphate", "type": "cell-based"}, "bacteria": {"test_system": "bacteria", "assay": "Ames reverse mutation assay"}, "HTR2A": {"target": "HTR2A (Homo sapiens, UniProt P28223)", "sequence (P28223 whole entry)": "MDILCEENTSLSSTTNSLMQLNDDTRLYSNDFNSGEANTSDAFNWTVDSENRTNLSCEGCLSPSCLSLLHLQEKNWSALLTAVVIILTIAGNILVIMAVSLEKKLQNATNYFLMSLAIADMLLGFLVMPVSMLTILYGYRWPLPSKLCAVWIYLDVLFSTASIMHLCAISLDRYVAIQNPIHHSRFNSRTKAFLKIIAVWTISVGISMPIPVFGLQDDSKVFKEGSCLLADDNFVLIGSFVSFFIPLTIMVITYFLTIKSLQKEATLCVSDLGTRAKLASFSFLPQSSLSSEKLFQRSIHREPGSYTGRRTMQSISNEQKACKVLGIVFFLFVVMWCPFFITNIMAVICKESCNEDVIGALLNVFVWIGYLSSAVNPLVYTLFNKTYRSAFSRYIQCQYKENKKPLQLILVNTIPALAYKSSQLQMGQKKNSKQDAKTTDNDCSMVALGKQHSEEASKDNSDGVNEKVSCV", "assay": "DiscoverX gpcrMAX panel, antagonist mode, HTR2A", "type": "cell-based", "details": "10 μM, percent inhibition of EC80 reference agonist"}, "pKa titration": {"assay": "pKa titration", "type": "physicochemical"}, "ADRA2C": {"target": "T3, ADRA2C (Homo sapiens, UniProt P18825)", "T3 sequence (P18825 1-462)": "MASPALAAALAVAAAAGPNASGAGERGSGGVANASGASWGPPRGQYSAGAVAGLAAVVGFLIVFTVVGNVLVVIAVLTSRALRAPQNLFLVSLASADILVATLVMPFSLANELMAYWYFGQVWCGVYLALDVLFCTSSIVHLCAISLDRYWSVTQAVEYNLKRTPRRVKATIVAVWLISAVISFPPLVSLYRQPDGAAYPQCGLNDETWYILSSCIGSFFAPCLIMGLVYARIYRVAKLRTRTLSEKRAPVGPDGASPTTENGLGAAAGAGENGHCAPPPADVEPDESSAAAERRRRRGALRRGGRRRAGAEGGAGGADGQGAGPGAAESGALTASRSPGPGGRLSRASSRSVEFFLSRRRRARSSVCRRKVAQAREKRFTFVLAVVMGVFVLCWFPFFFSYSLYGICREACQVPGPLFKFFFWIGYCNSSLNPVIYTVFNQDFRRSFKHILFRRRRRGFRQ", "assay": "DiscoverX gpcrMAX panel, antagonist mode, ADRA2C", "details": "10 μM, percent inhibition of EC80 reference agonist"}, "[3]": {"target": "D2R (short and long isoforms) (Homo sapiens, UniProt P14416)", "sequence (P14416 1-414 isoform P14416-2)": "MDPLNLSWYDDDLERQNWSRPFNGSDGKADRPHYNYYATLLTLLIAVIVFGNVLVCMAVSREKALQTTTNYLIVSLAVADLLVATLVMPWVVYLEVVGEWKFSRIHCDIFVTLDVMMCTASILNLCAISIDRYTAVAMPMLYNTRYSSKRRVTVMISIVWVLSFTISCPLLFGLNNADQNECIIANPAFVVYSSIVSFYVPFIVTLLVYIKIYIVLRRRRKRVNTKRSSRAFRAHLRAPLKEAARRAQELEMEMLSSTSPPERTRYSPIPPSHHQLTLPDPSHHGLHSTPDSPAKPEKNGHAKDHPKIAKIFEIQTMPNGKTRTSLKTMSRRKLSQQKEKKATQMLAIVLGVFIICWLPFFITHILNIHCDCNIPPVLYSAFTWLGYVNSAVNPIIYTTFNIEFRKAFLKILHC", "assay": "DiscoverX gpcrMAX panel, agonist mode, D2R", "details": "10 μM"}, "[4]": {"test_system": "all other receptor subtypes (D1R, D2R, D4R, D5R)", "type": "cell-based", "details": "β-arrestin recruitment"}, "D3R [5]": {"target": "T2, D3R", "assay": "β-arrestin recruitment DiscoverX PathHunter assay, agonist mode, D3R", "type": "cell-based"}, "168 known GPCRs": {"test_system": "168 known GPCRs", "details": "10 μM"}, "[6]": {"target": "alpha2B-adrenergic receptor (Homo sapiens, UniProt P18089)", "sequence (P18089 whole entry)": "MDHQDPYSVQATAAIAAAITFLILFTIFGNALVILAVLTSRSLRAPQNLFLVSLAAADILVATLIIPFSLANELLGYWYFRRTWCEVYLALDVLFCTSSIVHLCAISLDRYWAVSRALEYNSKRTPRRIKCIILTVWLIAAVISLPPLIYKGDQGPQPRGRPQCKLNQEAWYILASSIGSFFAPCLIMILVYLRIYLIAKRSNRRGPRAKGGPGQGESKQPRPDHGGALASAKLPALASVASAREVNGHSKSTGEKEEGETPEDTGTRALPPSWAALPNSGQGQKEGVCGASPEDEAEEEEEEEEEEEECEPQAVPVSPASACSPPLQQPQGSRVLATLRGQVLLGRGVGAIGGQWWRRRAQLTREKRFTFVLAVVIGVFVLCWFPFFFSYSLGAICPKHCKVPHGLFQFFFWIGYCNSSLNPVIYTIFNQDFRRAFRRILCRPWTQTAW", "details": "10 μM"}},
  "data": [
    {"smiles": "CCCN(CC[C@]1(O)C[C@H](NC(=O)c2ccc3ccccc3c2)C1)[C@H]1CCc2nc(N)sc2C1", "note": "[CJ-1639]", "values": [
      {"measurement": "agonist activity, CXCR7 (gpcrMAX)", "setting": "chemokine CXCR7 receptor", "value": "partial agonist activities"},
      {"measurement": "agonist activity, D4R (gpcrMAX)", "setting": "D4R", "value": "partial agonist activities"},
      {"measurement": "agonist activity, D3R (gpcrMAX)", "setting": "D3R [1]", "value": "full agonist"}
    ]},
    {"smiles": "COc1ccc(OCCN2CCN(C(=O)c3ccc(OC)cc3)CC2)cc1", "note": "[Compound 1, (4-(2-(4-Methoxyphenoxy)ethyl)piperazin-1-yl)(4-methoxyphenyl)methanone]", "values": [
      {"measurement": "IC50 for inhibiting [3H]-methylspiperone binding to the D2R", "setting": "human D2RL", "value": "no measurable ability to displace binding"},
      {"measurement": "D2R agonist activity EC50", "setting": "D2R; β-arrestin recruitment (DiscoverX), agonist mode", "value": "No measurable agonist activity"}
    ]},
    {"smiles": "NCCc1cc(O)c(O)cc1O", "note": "[Compound 6-OHDA, 6-hydroxydopamine]", "values": [
      {"measurement": "reduction of cell viability", "setting": "[2]; 30 μM, 24 hr, no drug (vehicle)", "value": "62 ± 8", "unit": "%"}
    ]},
    {"smiles": "COc1ccc(OCCN2CCN(C(=O)c3cc4ccccc4[nH]3)CC2)cc1", "note": "[Compound 20, (1H-Indol-2-yl)(4-(2-(4-methoxyphenoxy)ethyl)piperazin-1-yl)methanone]", "values": [
      {"measurement": "5-HT2B agonist activity (IP1 accumulation)", "setting": "human 5-HT2B; 10 μM", "value": "no agonist activity"},
      {"measurement": "AMES reverse mutation assay", "setting": "bacteria", "value": "no toxicity was observed"},
      {"measurement": "partial antagonist activity, HTR2A", "setting": "HTR2A", "value": 37, "unit": "%"},
      {"measurement": "pKa", "setting": "pKa titration", "value": 8.62},
      {"measurement": "partial antagonist activity, ADRA2C", "setting": "ADRA2C", "value": 36, "unit": "%"},
      {"measurement": "agonist activity, D2R (gpcrMAX)", "setting": "[3]", "value": "small, but measurable agonist responses"},
      {"measurement": "agonist efficacy at other dopamine receptor subtypes", "setting": "[4]", "value": "minimal agonist efficacy"}
    ]},
    {"smiles": "COc1ccc2cc(C(=O)N3CCN(CCOc4cccnc4)CC3)[nH]c2c1", "note": "[Compound 58, (6-Methoxy-1H-indol-2-yl)(4-(2-(pyridin-3-yloxy)ethyl)piperazin-1-yl)methanone]", "values": [
      {"measurement": "D3R agonist activity EC50", "setting": "D3R [5]", "value": "single-digit nanomolar range"}
    ]},
    {"smiles": "COc1ccc2[nH]c(C(=O)N3CCN(CCOc4cccnc4)CC3)cc2c1", "note": "[Compound 59, (5-Methoxy-1H-indol-2-yl)(4-(2-(pyridin-3-yloxy)ethyl)piperazin-1-yl)methanone]", "values": [
      {"measurement": "D2R agonist activity Emax", "setting": "D2R; percentage of the maximum dopamine response", "value": "97 ± 2.8", "unit": "% control"}
    ]},
    {"smiles": "CCCN[C@H]1CCc2nc(N)sc2C1", "note": "[Pramipexole, pramipexole]", "values": [
      {"measurement": "concentration giving significant reduction in 6-OHDA-induced cell death", "setting": "[2]; 24 h pretreatment, 30 μM 6-OHDA 24 h, MTT", "value": 500, "unit": "nM"},
      {"measurement": "antagonist activity at any of the GPCRs tested", "setting": "168 known GPCRs", "value": "did not exhibit antagonist activity"},
      {"measurement": "agonist activity, alpha2B-adrenergic receptor (gpcrMAX)", "setting": "[6]", "value": "partial agonist activity"},
      {"measurement": "agonist activity, D3R (gpcrMAX)", "setting": "D3R [1]", "value": "full agonist activity"},
      {"measurement": "agonist activity, D2R (gpcrMAX)", "setting": "[3]", "value": "full agonist activity"}
    ]},
    {"smiles": "Cn1ccc2cc3c(cc21)CCN3C(=O)Nc1cccnc1", "note": "[SB206553, reference compound]", "values": [
      {"measurement": "IC50", "setting": "human 5-HT2B", "value": 13, "unit": "nM"}
    ]}
  ]
}
